Test results taken from patent publication US20250011869A1, “TLR3 INHIBITORS FOR USE IN THE TREATMENT OF DISEASES ASSOCIATED WITH CARDIOVASCULAR CALCIFICATION” (priority 2021, published 2025).

Legend:
[1] = system: TLR3-RUNX2 pathway; assay: Immunoblot of human dermal fibroblasts for the TLR3-RUNX2 pathway; format: cell-based; details: wild type and empty vector control cells; 5 μg/ml, 6 h
Excerpt: (§1) Human dermal fibroblasts WT and Tlr3^−/− were kindly provided by the Jean-Laurent Casanova group and cultivated in DMEM with 4.5 g/L glucose (Lonza, Basel, Switzerland), 10% FCS (Sigma, St. Louis, MO), penicillin, streptomycin and L-Glutamine. Human dermal fibroblasts CTR cells were provided by the Villunger group and cultivated in DMEM with 4.5 g/L glucose (Lonza, Basel, Switzerland), 10% FCS (Sigma, St. Louis, MO), penicillin, streptomycin and L-Glutamine.
(§2) All cells were cultivated under standard conditions (37° C., supplied with 5% CO2). Passaging of the cells was performed at 70-90% confluency, and cells were only used until passage 7 as described previously^6. Polyinosinic: polycytidylic acid (Poly(I:C); Invivogen, San Diego, CA) was used to stimulate cells at a concentration of either 20 μg/mL or 5 μg/ml, depending on the assay. For blockade of TLR3, the commercially available dsRNA/TLR3 inhibitor ((R)-2-(3-Chloro-6-fluorobenzo [b] thiophene-2-carboxamido)-3-phenyl-propanoic acid) was used (Merck, Darmstadt, Germany) at a concentration of 1 μg/ml as described previously^1,7. LY294002 (Invivogen, San Diego, CA), a PI3K inhibitor, was used at a concentration of 10 μM. For blockade of IFNAR1, a specific blocking antibody (Invitrogen, Carlsbad, CA) was used at a concentration of 4 μg/ml. A stable HEK (human embryonic kidney) reporter cell line (TLR3/ISRE LUCPorter; Imgenex, USA) was purchased for luminometer assay experiments. Cells were cultivated according to the manufacturer's protocol in DMEM with 4.5 g/L glucose (Lonza, Switzerland), 10% FCS (Sigma, St. Louis, MO), penicillin/streptomycin, and 4 mM L-glutamine and […] puromycin (Gibco, USA) as selection agent. Reporter experiments were performed as described previously^8. For the protein expression SF21 cells were purchased at ThermoFisher (#11497013) and cultivated in Gibco™ Sf-900™ SFM supplemented with penicillin, streptomycin and L-Glutamine. In vitro stretch was applied using a Flexcell bioreactor (Flexcell International Corporation, Burlington, NC) applying 15% cyclic strain as described previously^9.
Protein from tissue or cell lysates was extracted using a Radioimmunoprecipitation Assay Lysis Puffer (150 mM NaCl, 1% NP-40, 0.5% Sodium Deoxycholate, 0.1% SDS and 50 mM Tris (pH 8,0)). For the extraction of nuclear or cytosolic proteins the NE-PER™ Nuclear and Cytoplasmic Extraction Reagents Kit (ThermoScientific, #78835) was used.
Protein was thereafter separated on SDS-polyacrylamide gels of different percentages and transferred to nitrocellulose membranes as described previously^18. After blocking with either 5% BSA in TBS 0.1% Tween, 5% milk in TBS 0.1% Tween or StartingBlock™ (TBS) Blocking buffer (ThermoScientific, #37542) membranes were incubated with primary antibodies listed in Table 2.

[2] = system: TLR3; assay: TLR3 expression in valvular interstitial cells (immunoblot / RT-qPCR); format: cell-based, human; details: RT-qPCR; Poly(I:C) 2, 4, 6, 24 and 48 h (FIG. 4A)
Procedure: (§3) Valvular interstitial cells from patients undergoing aortic valve replacement or cardiac transplantation were isolated via collagen digestion as described previously^6. Valves were rinsed in EBSS and subsequently subjected to collagenase digestion (Sigma, St. Louis, MO; 2.5 mg/mL in M199) for 30 minutes at 37° C. Thereafter, tissue samples were vortexed and supernatant containing endothelial cells was removed. Again, collagenase was added to the remaining valve tissue (1 mg/mL) for 3 h at 37° C. For mechanical disintegration of the tissue, vortexing and repeated aspiration via a pipette was performed. The supernatant was transferred into a new tube and subjected to centrifugation (300 g for 8 minutes at 4° C.). Subsequently, cells were resuspended in M199 medium containing 10% fetal calve serum, penicillin, streptomycin, L-Glutamine and amphotericin B (2.5 mg/L).
(§4) All cells were cultivated under standard conditions (37° C., supplied with 5% CO2). Passaging of the cells was performed at 70-90% confluency, and cells were only used until passage 7 as described previously^6. […]
(§5) RT-PCR was performed as described previously^17. […] The result for the relative gene expression was calculated by the 2-DDCt method. Mean Ct values were calculated from double determinations and samples were considered negative if the Ct values exceeded 4017. […]

[3] = system: TLR3 and IFN-β; assay: RT-PCR of human dermal fibroblasts (wild type, empty vector control, Tlr3−/− CRISPR); format: cell-based; details: 5 μg/ml, 6 h
Excerpt: as §1, §2
RT-PCR was performed as described previously^17. Total RNA was extracted from homogenized tissue or cell lysates using the Total RNA Miniprep Kit (New England BioLabs, Frankfurt, Germany) according to the manufacturer's instructions. We performed the PCR reaction in a final volume of 12.5 μL containing 2.5 μL of cDNA, 6.25 μL of Master Mix, 1 μL of fluorogenic hybridization probe, 10 μM of primer and 2.75 μL of distilled water. […] The result for the relative gene expression was calculated by the 2-DDCt method. Mean Ct values were calculated from double determinations and samples were considered negative if the Ct values exceeded 4017. […]

[4] = system: IFN-β; assay: IFN-β expression in VICs (RT-qPCR); format: cell-based, human; details: Poly(I:C) 2, 4, 6, 24 and 48 h (FIG. 4B)
Procedure: as §3, §4, §5

[5] = system: VICs; assay: RNA sequencing of VICs vs human osteoblasts; format: cell-based; details: Poly(I:C) 20 μg/mL, 72 h
Procedure: Total-RNA was isolated from five samples (VICs, cultured in calcification media and treated either 72 h with 20 μg/ml Poly(I:C), untreated controls, as well as human osteoblasts) and submitted to transcriptome analysis for the purpose of gene-expression profiling. For the RNA sequencing analysis in FIG. 5 the 2100 Bioanalyzer and RNA 6000 Nano LabChip kits (Agilent Technologies) was used to check for RNA integrity (all RINs >9). The TruSeq® Stranded mRNA HT technology was used for library preparation according to manufacturer's protocol and Illumina NextSeq® 500 1×75 bp single end sequencing was performed at the IMGM® laboratories (Martinsried, Germany). The RNA sequencing analysis in Figure S3 was performed at Novogene (UK) Co. using the NovaSeq 600 PE150.
All primary sequencing analyses were performed using CLC Genomics Workbench (9.5.3) including sequence QC and mapping to the human reference genome (GRCh38.p7). Differentially expression analyses were performed on raw count data and using an exact test based on negative binomial distribution (edgeR version 3.4.0) 10. P-values were adjusted according to the Benjamini-Hochberg method based on the false discovery rate (FDR). Only genes with at least four-fold change were considered. Over representation analysis for gene ontology and pathways on differentially expressed genes were performed using DAVID (6.8) 11 and ConsensusPathDB^12. Gene set enrichment analysis on log 2-fold change pre-ranked data was performed using GSEA software^13 and gene sets for biological hallmark processes and pathways (MSigDB), calcification signature as derived from respective literature, and signatures of differentially expressed genes for calcific aortic valve stenosis versus control^14 (reanalyzed data from GSE12644 using R package limma^15 including genes with more than two-fold change and FDR <0.05). Heat maps were generated using Genesis version 1.8.116 for log 2-fold change data.

[6] = system: VICs; assay: Calcification assay of VICs in osteogenic medium (Alizarin Red S, alkaline phosphatase); format: cell-based, human; details: VICs in osteoblastic medium
Procedure: For functional evaluation of osteoblastic activity, VICs were subjected to a calcification assay. Cells were cultured in osteogenic medium including 10 mmol/L beta-glycerophosphate, 10 nmol/L vitamin D3, and 10 nmol/L dexamethasone as described previously^4. The medium was changed every three days. Subsequently, supernatant was analyzed for alkaline phosphatase activity using the commercially available alkaline phosphatase assay kit (Abcam, Cambridge, UK). After careful rinsing with PBS, cells were fixed with 4% paraformaldehyde, washed with distilled water and Alizarin Red S staining solution (Alfa Aesar, Haverhill, MA) was added upon the fixed cells for 20 minutes at room temperature (RT). Imaging of the staining was performed using a Zeiss Axioplan 2 microscope (Zeiss, Oberkochen, Germany). Images were processed using Adobe Photoshop CS5.1 for Mac (Adobe Systems Inc., San Jose, CA, USA) and analyzed with ImageJ software (National Institutes of Health, Bethesda, […]).

## Polyinosinic: polycytidylic acid [Poly(I:C)]
[1]
  IFNAR1 level: upregulation of IFNAR1
  levels of osteoblastic transcription factor RUNX2: increased levels
  phosphorylation of IRF3: phosphorylation of IRF3
[2]
  TLR3 expression in VICs: increased expression
[3]; Tlr3−/− fibroblasts
  transcription of TLR3 and IFN-β: no response
[3]; wild type and empty vector control fibroblasts
  transcription of TLR3 and IFN-β: induced transcription of TLR3 and IFN-β
[4]
  IFN-β expression in VICs: increased expression
[5]
  transcriptome of treated VICs: induces an osteoblastic transcriptome
[5]; at least four-fold change
  genes downregulated in both Poly(I:C)-treated VICs and human osteoblasts compared to untreated VICs: 199 genes
  genes upregulated in both Poly(I:C)-treated VICs and human osteoblasts compared to untreated VICs: 118 genes
[6]; Poly(I:C) 20 μg/mL or inhibitor 26 μM, Alizarin Red S
  calcification / production of calcific nodules: enhanced the production of calcific nodules
[6]; supernatant
  alkaline phosphatase (ALP) activity: increased the activity
